Consider 20 compounds from patent US20260042764A1, “COMPOSITIONS AND METHODS FOR INHIBITION OF KRAS” (TheRas, Inc., priority 2022, published 2026).

Experiment [1] deals with GP2d cells (KRAS G12D). The experiment is described as follows: Cell-based pERK HTRF assay in GP2d cell (Biological Example 2). To be noted: GP2d (KRAS G12D) cells. In a few lines:
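GP2d (KRAS G12D) cells were plated in DMEM/10% FBS and treated the next day for 60 min with compounds. Dosing used 9-point half-log series starting at 1 μM or 100 nM in 0.25% DMSO. Lysates were read by HTRF pERK (d2/Eu cryptate antibodies) after 4–24 h at room temperature, with excitation at 320 nm and emission at 615 nm.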

The target of experiment [2] is T1, Avi-KRAS WT (2-169) GTP/RAF1 RBD-3xFLAG (51-131) (Homo sapiens, UniProt P01116).
T1 construct: Avi-KRAS WT (2-169)
The experiment is described as follows: Raf1-KRAS WT-GTP disruption HTRF assay (Biological Example 3). It counts as binding. To be noted: KRAS WT, GTP-loaded. In a few lines: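 50 nM Avi-KRAS (2-169) GTP/RAF1 RBD complex; 75 nM RBD-Avi; pH 7.5 Tris buffer, 10% DMSO; cpd 30 μM top, 3x, 10 pts; 1 h RT, 700 rpm; HTRF, % of DMSO.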

Experiment [3] concerns SW620 cells (KRAS G12V). The experiment in a line: Cell-based pERK HTRF assay in SW620 cell (Biological Example 4). The method, boiled down:
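SW620 (KRAS G12V) cells seeded at 3×10^4/well in RPMI, 10% FBS, then treated next day for 4 h with a 9-point half-log series from 1 μM top (0.25% DMSO). Lysates analyzed for pERK by HTRF (Eu cryptate/d2 antibodies, 4–24 h at room temperature), excitation 320 nm, emission 615 nm.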
For orientation: In TR-FRET formats the signal depends on donor and acceptor labels being close together.

The mark [4] stands for this setting: Homo sapiens, SW-620, SW620 (KRAS G12V) cells.
The mark [5] stands for this setting: Homo sapiens, SW-620, SW620 (KRAS G12V) cells, pERK HTRF.
[6] abbreviates: SW620 (KRAS G12V) cells, pERK HTRF.

T1 sequence (P01116 2-169 isoform P01116-2): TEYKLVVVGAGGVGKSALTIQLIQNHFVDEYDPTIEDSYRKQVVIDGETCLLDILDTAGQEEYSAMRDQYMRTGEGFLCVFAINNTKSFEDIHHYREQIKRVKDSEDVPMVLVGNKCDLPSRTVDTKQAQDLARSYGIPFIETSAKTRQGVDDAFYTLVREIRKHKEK

With `CCN(c1nc(OC[C@@]23CCCN2C[C@H](F)C3)nc2c(F)c(-c3ccc(F)c4sc(N)c(C#N)c34)c(C(F)(F)F)cc12)C1C[C@@H](C)N(C(=O)C2CC2)C1` (stereo partly shown) [Compound 516], the IC50 (as a rule, the concentration at which inhibition is half-maximal) was under 100 nM in experiment [1] (GP2d); under 100 nM in experiment [1] (GP2d, pERK HTRF); 100 to 1000 nM in experiment [2]; under 100 nM in experiment [3] (setting [4]); under 100 nM in experiment [3] (setting [5]).

Take `CCC(=O)N1C[C@H](N(CC)c2nc(OC[C@@]34CCCN3C[C@H](F)C4)nc3c(F)c(-c4ccc(F)c5sc(N)c(C#N)c45)c(C(F)(F)F)cc23)C[C@@H]1C` (atropisomer, axis not shown) [Compound 533]: the IC50 is under 100 nM in experiment [1] (GP2d); under 100 nM in experiment [1] (GP2d, pERK HTRF); 100 to 1000 nM in experiment [2]; under 100 nM in experiment [3] (setting [4]); under 100 nM in experiment [3] (setting [5]).

In the case of `CCN(c1nc(OC[C@@]23CCCN2C[C@H](F)C3)nc2c(F)c(-c3ccc(F)c4sc(N)c(C#N)c34)c(C(F)(F)F)cc12)[C@H]1C[C@H]2COC(=O)N2C1` (atropisomer, axis not shown; (aS)) [Compound 518, 2-amino-4-((S)-4-(ethyl((6S,7aS)-3-oxotetrahydro-1H,3H-pyrrolo[1,2-c]oxazol-6-yl)amino)-8-fluoro-2-(((2R,7aS)-2-fluorotetrahydro-1H-pyrrolizin-7a(5H)-yl)methoxy)-6-(trifluoromethyl)quinazolin-7-yl)-7-fluorobenzo[b]thiophene-3-carbonitrile], the IC50 in experiment [1] (GP2d) is under 100 nM; in experiment [1] (GP2d, pERK HTRF), under 100 nM; in experiment [2], at most 100 nM; in experiment [3] (setting [4]), under 100 nM; in experiment [3] (setting [5]), under 100 nM.

As for `CCN(c1nc(OC[C@@]23CCCN2C[C@H](F)C3)nc2c(F)c(-c3ccc(F)c4sc(N)c(C#N)c34)c(C(F)(F)F)cc12)[C@H]1CCN(C(=O)C(C)C)C1` (atropisomer, axis not shown) [Compound 468], the IC50 was 100 to 1000 nM in experiment [1] (pERK HTRF) and over 1000 nM in experiment [3] (setting [6]).

As to `CN(C)C(=O)[C@@H]1CC[C@@H](N(C)c2nc(OC[C@@]34CCCN3C[C@H](F)C4)nc3c(F)c(-c4ccc(F)c5sc(N)c(C#N)c45)c(C(F)(F)F)cc23)C1` (atropisomer, axis not shown) [Compound 512], the IC50 in experiment [1] (GP2d) was under 100 nM; in experiment [1] (GP2d, pERK HTRF), under 100 nM; in experiment [2] it was 100 to 1000 nM; in experiment [3] (setting [4]), under 100 nM; in experiment [3] (setting [5]), under 100 nM.

Regarding `CCN(c1nc(OC[C@@]23CCCN2C[C@H](F)C3)nc2c(F)c(-c3ccc(F)c4sc(N)c(C#N)c34)c(C(F)(F)F)cc12)[C@@H]1C[C@@H](C)N(C(C)=O)C1` (atropisomer, axis not shown) [Compound 527], the IC50 was under 100 nM in experiment [1] (GP2d); under 100 nM in experiment [1] (GP2d, pERK HTRF); 100 to 1000 nM in experiment [2]; under 100 nM in experiment [3] (setting [4]); under 100 nM in experiment [3] (setting [5]).

Turning to `CCN(c1nc(OC[C@@]23CCCN2C[C@H](F)C3)nc2c(F)c(-c3ccc(F)c4sc(N)c(C#N)c34)c(C(F)(F)F)cc12)[C@H]1C[C@H]2CN(C)C(=O)N2C1` (atropisomer, axis not shown; (aS)) [Compound 543, 2-amino-4-((S)-4-(ethyl((6S,7aS)-2-methyl-3-oxohexahydro-1H-pyrrolo[1,2-c]imidazol-6-yl)amino)-8-fluoro-2-(((2R,7aS)-2-fluorotetrahydro-1H-pyrrolizin-7a(5H)-yl)methoxy)-6-(trifluoromethyl)quinazolin-7-yl)-7-fluorobenzo[b]thiophene-3-carbonitrile], the IC50 in experiment [1] (GP2d) was under 100 nM; in experiment [1] (GP2d, pERK HTRF), under 100 nM; in experiment [2] it was at most 100 nM; in experiment [3] (setting [4]), under 100 nM; in experiment [3] (setting [5]), under 100 nM.

Turning to `CCN(c1nc(OC[C@@]23CCCN2C[C@H](F)C3)nc2c(F)c(-c3ccc(F)c4sc(N)c(C#N)c34)c(C(F)(F)F)cc12)[C@H]1CCN(C(=O)C(C)C)C1` (single isomer, unassigned) [Compound 469], the IC50 in experiment [1] (GP2d) was under 100 nM; in experiment [1] (GP2d, pERK HTRF), under 100 nM; in experiment [2] it was at most 100 nM; in experiment [3] (setting [4]), under 100 nM; in experiment [3] (setting [5]), under 100 nM.

With `CCN(c1nc(OC[C@@]23CCCN2C[C@H](F)C3)nc2c(F)c(-c3ccc(F)c4sc(N)c(C#N)c34)c(C(F)(F)F)cc12)[C@@H]1CC(=O)N(C)C1` [Compound 520], the IC50 in experiment [1] (GP2d) was under 100 nM; in experiment [1] (GP2d, pERK HTRF) it was under 100 nM; in experiment [2] it was 100 to 1000 nM; in experiment [3] (setting [4]) it was under 100 nM; in experiment [3] (setting [5]), under 100 nM.

For the compound `CCN(c1nc(OC[C@@]23CCCN2C[C@H](F)C3)nc2c(F)c(-c3ccc(F)c4sc(N)c(C#N)c34)c(C(F)(F)F)cc12)[C@@H]1CCN(C(=O)C2CC2)[C@@H]1C` (atropisomer, axis not shown) [Compound 524], the IC50 is under 100 nM in experiment [1] (pERK HTRF); under 100 nM in experiment [1] (GP2d); at most 100 nM in experiment [2]; under 100 nM in experiment [3] (setting [4]); under 100 nM in experiment [3] (setting [6]).

As to `CCN(c1nc(OC[C@@]23CCCN2C[C@H](F)C3)nc2c(F)c(-c3ccc(F)c4sc(N)c(C#N)c34)c(C(F)(F)F)cc12)[C@@H]1C[C@@H]2CCC(=O)N2C1` [Compound 511], the IC50 in experiment [1] (GP2d) is under 100 nM; in experiment [1] (GP2d, pERK HTRF) it was under 100 nM; in experiment [2] it was 100 to 1000 nM; in experiment [3] (setting [4]), under 100 nM; in experiment [3] (setting [5]), under 100 nM.

Turning to `CCN(c1nc(OC[C@@]23CCCN2C[C@H](F)C3)nc2c(F)c(-c3ccc(F)c4sc(N)c(C#N)c34)c(C(F)(F)F)cc12)[C@H]1CCN(C(=O)OC)C1` (atropisomer, axis not shown) [Compound 541, methyl(3S)-3-[[7-(2-amino-3-cyano-7-fluoro-benzothiophen-4-yl)-8-fluoro-2-[[(2R,8S)-2-fluoro-1,2,3,5,6,7-hexahydropyrrolizin-8-yl]methoxy]-6-(trifluoromethyl)quinazolin-4-yl]-ethyl-amino]pyrrolidine-1-carboxylate], the IC50 in experiment [1] was under 100 nM; in experiment [1] (pERK HTRF) it was under 100 nM; in experiment [2], 100 to 1000 nM; in experiment [3] (SW620 (KRAS G12V) cells), under 100 nM; in experiment [3] (setting [6]), under 100 nM.

As to `CCN(c1nc(OC[C@@]23CCCN2C[C@H](F)C3)nc2c(F)c(-c3ccc(F)c4sc(N)c(C#N)c34)c(C(F)(F)F)cc12)[C@H]1CCN(C(=O)c2ccon2)C1` (atropisomer, axis not shown) [Compound 554], the IC50 in experiment [1] (GP2d) was under 100 nM; in experiment [1] (GP2d, pERK HTRF), under 100 nM; in experiment [2], 100 to 1000 nM; in experiment [3] (setting [4]), under 100 nM; in experiment [3] (setting [5]) it was under 100 nM.

`CCC(=O)N1CC[C@@H](N(CC)c2nc(OC[C@@]34CCCN3C[C@H](F)C4)nc3c(F)c(-c4ccc(F)c5sc(N)c(C#N)c45)c(C(F)(F)F)cc23)[C@H]1C` (atropisomer, axis not shown) [Compound 523]: the IC50 is under 100 nM in experiment [1] (pERK HTRF); under 100 nM in experiment [1] (GP2d); at most 100 nM in experiment [2]; under 100 nM in experiment [3] (setting [4]); under 100 nM in experiment [3] (setting [6]).

Take `CCN(c1nc(OC[C@@]23CCCN2C[C@H](F)C3)nc2c(F)c(-c3ccc(F)c4sc(N)c(C#N)c34)c(C(F)(F)F)cc12)[C@@H]1C[C@H](C)N(C(C)=O)C1` (atropisomer, axis not shown) [Compound 534]: the IC50 in experiment [1] (GP2d) was under 100 nM; in experiment [1] (GP2d, pERK HTRF) it was under 100 nM; in experiment [2] it was 100 to 1000 nM; in experiment [3] (setting [4]), under 100 nM; in experiment [3] (setting [5]), under 100 nM.

Consider `CCOC(=O)N1CC[C@H](N(CC)c2nc(OC[C@@]34CCCN3C[C@H](F)C4)nc3c(F)c(-c4ccc(F)c5sc(N)c(C#N)c45)c(C(F)(F)F)cc23)C1` [Compound 467], for which the IC50 is under 100 nM in experiment [1] (GP2d, pERK HTRF) and under 100 nM in experiment [3] (setting [5]).

As for `N#Cc1c(N)sc2c(F)ccc(-c3c(C(F)(F)F)cc4c(N5CCn6nc(N7CCOCC7)cc6C5)nc(OC[C@@]56CCCN5C[C@H](F)C6)nc4c3F)c12` [Compound 485], the IC50 in experiment [1] (GP2d, pERK HTRF) is under 100 nM; in experiment [3] (setting [5]) it was under 100 nM.

Consider `CCN(c1nc(OC[C@@]23CCCN2C[C@H](F)C3)nc2c(F)c(-c3ccc(F)c4sc(N)c(C#N)c34)c(C(F)(F)F)cc12)[C@H]1CCS(=O)(=O)C1` (atropisomer, axis not shown) [Compound 492], for which the IC50 in experiment [1] (pERK HTRF) and in experiment [3] (setting [6]) was under 100 nM each time.

As to `Cc1cc2n(n1)CCN(c1nc(OCC34CCCN3CC(F)C4)nc3c(F)c(-c4ccc(F)c5sc(N)c(C#N)c45)c(C(F)(F)F)cc13)C2` (stereo not shown) [Compound 484], the IC50 is under 100 nM in experiment [1] (GP2d, pERK HTRF) and under 100 nM in experiment [3] (setting [5]).

For the compound `CCN(c1nc(OC[C@@]23CCCN2C[C@H](F)C3)nc2c(F)c(-c3ccc(F)c4sc(N)c(C#N)c34)c(C(F)(F)F)cc12)[C@H]1C[C@H](C)N(C(=O)C2CC2)C1` [Compound 470], the IC50 in experiment [1] (GP2d, pERK HTRF) is under 100 nM; in experiment [3] (setting [5]), under 100 nM.
